Source: US11644469B2, “HIF-1 and HIF-2 inhibitors” (UNIVERSITY OF SOUTHAMPTON, priority 2016, dated 2023)
Like-named read-outs stand apart in the source and are kept apart here. Residues, ends and D or L forms follow the SMILES beside them.

Columns and labels:
HIF-1β (GST-1β, 1β PASB) [1] = target: T1, HIF-1β (GST-1β, 1β PASB) (Homo sapiens, UniProt P27540); experiment: Thermal shift assay, HIF-1β (negative control); assay type: binding; details: for activity against HIF-1β in thermal shift assay: negative control protein
T1 construct: 356-474; made in house
T1 sequence (P27540 356-474): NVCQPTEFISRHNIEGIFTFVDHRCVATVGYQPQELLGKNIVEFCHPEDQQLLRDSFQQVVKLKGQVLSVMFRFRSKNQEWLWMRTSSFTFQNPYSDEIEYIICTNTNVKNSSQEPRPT
Description: (§1) The binding of the compounds to their targets was assessed by measuring changes in the melting temperature of their target proteins HIF-1α and HIF-2α (known as a thermal shift assay) and by microscale thermophoresis (MST). The data for the thermal shift assay is summarized in FIG. 1, while the binding constants (Kd) derived from MST is shown in FIG. 3. Compounds that are effective inhibitors decrease the melting temperatures of the proteins. […] The compounds may bind to HIF 1α/2α or 1β in order to disrupt the dimerization, and PASB may be the responsible domain.
(§2) Thermal shift data of thioredoxin-tagged longer constructs and PASB domains with the identified polypeptides are shown in FIG. 1. Compounds that are effective inhibitors decrease the melting temperatures of the proteins.
(§3) Thermal denaturation of HIF proteins was performed in 20 μL reactions in triplicate using a Bio-Rad CFX Connect Real-Time System. Proteins were used at either 5 μM (Trx-1α, Trx-2α and GST-1β) or 15 μM (His-tagged PASB domains) in HIF assay buffer, with 10 mM DTT and SYPRO orange dye (Life Technologies) at a final concentration of 8× (relative to 5000× stock), and supplemented with either DMSO or compound dissolved in DMSO at the stated concentrations. The reaction plate was assembled on ice, then transferred to the pre-chilled thermal cycler, held at 10° C. for 5 min (heated lid, 105° C.), then the temperature ramped to 95° C. Fluorescence was recorded at 0.5° C. increments, holding for 5 sec at each temperature. Data were plotted using GraphPad Prism 6, and melting temperatures calculated using the first derivative method in which the peak (i.e. the steepest transition between data points) represents the point at which 50% of the protein sample is denatured. Errors are quoted as the inherent error associated with the first derivative of the data, i.e. ±0.25° C. for Tm values and ±0.5° C. for ΔTm values.

HIF-1α (Trx-1α, 1α PASB) [2] = target: T2, HIF-1α (Trx-1α, 1α PASB) (Homo sapiens, UniProt Q16665); experiment: Thermal shift assay, HIF-1α; assay type: binding; details: 1 mM compound
T2 construct: 238-349; made in house
Description: as §1, §2, §3

HIF-1α (Trx-1α, 1α PASB) [3] = experiment: Thermal shift assay, HIF-1α; assay type: binding; details: effective inhibitors decrease the melting temperature
Description: as §1, §2, §3

HIF-2α (Trx-2α, 2α PASB) [4] = target: T3, HIF-2α (Trx-2α, 2α PASB) (Homo sapiens, UniProt Q99814); experiment: Thermal shift assay, HIF-2α; assay type: binding; details: 1 mM compound
T3 construct: 240-350; made in house
Description: as §1, §2, §3

HIF-2α (Trx-2α, 2α PASB) [5] = experiment: Thermal shift assay, HIF-2α; assay type: binding; details: effective inhibitors decrease the melting temperature
Description: as §1, §2, §3

HIF-1β (GST-1β, 1β PASB) [6] = experiment: Thermal shift assay, HIF-1β (negative control); assay type: binding; details: 1 mM compound; GST-1β 5 μM
Description: as §1, §2, §3

MCF-7 cells = experiment: Cell permeability and localisation by fluorescence microscopy; assay type: cell-based; details: 24 hr
Description: FIGS. 10A-D and 10A′-D′ show cell permeability tested using fluorescently labeled-CRVIIF (SEQ ID NO 4) in MCF-7 cells.
For initial compound permeability experiments, 1.5 mL MCF-7 cells were plated on 3 cm petri dishes (200,000 cells/plate) and grown at 37° C. After 24 hr, cells were incubated with fresh media containing the stated concentrations of fluor-CRVIIF (SEQ ID NO 4) (0.5% DMSO) or 66 μM CP-61 control compound (0.66% DMSO) for a further 24 hr. Cells were washed twice with PBS and imaged live in plates. For co-localisation experiments, an 8-well Lab-Tek Chamber Slide (Nunc) was treated with collagen prior to plating 25,000 MCF-7 cells/well. After 24 hr, cells were dosed with 300 μL fresh media containing the stated concentrations of fluor-CRVIIF (SEQ ID NO 4) (0.5% DMSO) and/or 5 μg/mL FM 4-64FX Membrane Stain (Life Technologies) and incubated for a further 24 hr. Cells were washed with 2×300 μL PBS, fixed with 150 μL 10% formalin in PBS for 5-10 min, then washed again with PBS. Growth chambers were removed and nuclear staining was achieved using Vectashield Mounting Medium with DAPI (Vector Laboratories) prior to sealing the slide with a coverslip. Cells were imaged using a fluorescent microscope.

[7] = 1 mM compound, His-tagged PASB domain 15 μM
[8] = His-tagged PASB domain 15 μM, read-out: ΔTm 1α PASB
[9] = Trx-1α 5 μM, read-out: ΔTm Trx-1α
[10] = His-tagged PASB domain 15 μM, read-out: ΔTm 2α PASB
[11] = Trx-2α 5 μM, read-out: ΔTm Trx-2α

Compound	ΔTm at 1000 µM (HIF-1β (GST-1β, 1β PASB) [1]; [7]) [°C]	activity against HIF-1β in thermal shift assay (HIF-1β (GST-1β, 1β PASB) [1])	ΔTm at 1000 µM (HIF-1α (Trx-1α, 1α PASB) [2]; [8]) [°C]	ΔTm at 1000 µM (HIF-1α (Trx-1α, 1α PASB) [2]; [9]) [°C]	ΔTm at 1000 µM (HIF-2α (Trx-2α, 2α PASB) [4]; [10]) [°C]	ΔTm at 1000 µM (HIF-2α (Trx-2α, 2α PASB) [4]; [11]) [°C]	ΔTm 1β PASB (HIF-1β (GST-1β, 1β PASB) [1]; [7]) [°C]	ΔTm 1α PASB (HIF-1α (Trx-1α, 1α PASB) [2]; His-tagged PASB domain 15 μM) [°C]	ΔTm Trx-1α (HIF-1α (Trx-1α, 1α PASB) [2]; Trx-1α 5 μM) [°C]	ΔTm 2α PASB (HIF-2α (Trx-2α, 2α PASB) [4]; His-tagged PASB domain 15 μM) [°C]	ΔTm Trx-2α (HIF-2α (Trx-2α, 2α PASB) [4]; Trx-2α 5 μM) [°C]	activity against HIF-1α in thermal shift assay (HIF-1α (Trx-1α, 1α PASB) [3])	activity against HIF-2α in thermal shift assay (HIF-2α (Trx-2α, 2α PASB) [5])	ΔTm GST-1β (HIF-1β (GST-1β, 1β PASB) [6]) [°C]	cell permeability (MCF-7 cells)
CC[C@H](C)[C@@H]1NC(=O)[C@H](CC(C)C)NC(=O)[C@H](CCCCN)NC(=O)[C@H](CS)NC(=O)[C@H](Cc2ccccc2)NC(=O)[C@H]([C@@H](C)CC)NC1=O [CKLIIF] (cyclo(CKLIIF); ring closure inferred)	-0.5	not against HIF-1β	-1	-1.5	-2.5	-2.5	–	–	–	–	–	show activity	show activity	–	–
CC[C@H](C)[C@@H]1NC(=O)[C@H](C(C)C)NC(=O)[C@H](CCCNC(=N)N)NC(=O)[C@H](CS)NC(=O)[C@H](Cc2ccccc2)NC(=O)[C@H]([C@@H](C)CC)NC1=O [CRVIIF, cyclo-CRVIIF] (cyclo(CRVIIF); ring closure inferred)	-0.5	not against HIF-1β	-1.5	-1	-2.5	-2	–	–	–	–	–	show activity	show activity	−0.5	–
fluor-CRVIIF: fluorescently labelled cyclo-CRVIIF; FITC-maleimide bound to the cysteine (cyclo(C(FITC‑maleimide)RVIIF); listed as Homo sapiens)	–	–	–	–	–	–	–	–	–	–	–	–	–	–	appears to cross cell membrane

Now from value to compound, other results behind:

ΔTm at 1000 µM (HIF-1β (GST-1β, 1β PASB) [1]; [7]) [°C]	activity against HIF-1β in thermal shift assay (HIF-1β (GST-1β, 1β PASB) [1])	ΔTm at 1000 µM (HIF-1α (Trx-1α, 1α PASB) [2]; [8]) [°C]	ΔTm at 1000 µM (HIF-1α (Trx-1α, 1α PASB) [2]; [9]) [°C]	ΔTm at 1000 µM (HIF-2α (Trx-2α, 2α PASB) [4]; [10]) [°C]	ΔTm at 1000 µM (HIF-2α (Trx-2α, 2α PASB) [4]; [11]) [°C]	ΔTm 1β PASB (HIF-1β (GST-1β, 1β PASB) [1]; [7]) [°C]	ΔTm 1α PASB (HIF-1α (Trx-1α, 1α PASB) [2]; His-tagged PASB domain 15 μM) [°C]	ΔTm Trx-1α (HIF-1α (Trx-1α, 1α PASB) [2]; Trx-1α 5 μM) [°C]	ΔTm 2α PASB (HIF-2α (Trx-2α, 2α PASB) [4]; His-tagged PASB domain 15 μM) [°C]	ΔTm Trx-2α (HIF-2α (Trx-2α, 2α PASB) [4]; Trx-2α 5 μM) [°C]	Compound	activity against HIF-1α in thermal shift assay (HIF-1α (Trx-1α, 1α PASB) [3])	activity against HIF-2α in thermal shift assay (HIF-2α (Trx-2α, 2α PASB) [5])	ΔTm GST-1β (HIF-1β (GST-1β, 1β PASB) [6]) [°C]	cell permeability (MCF-7 cells)
-1	not against HIF-1β	-2	0.5	-4	-4	–	–	–	–	–	CC[C@H](C)[C@@H]1NC(=O)[C@H](CC(C)C)NC(=O)[C@H](CC(C)C)NC(=O)[C@H](CCCNC(=N)N)NC(=O)[C@H](CS)NC(=O)[C@H](Cc2ccccc2)NC1=O [CRLLIF, cyclo-CRLLIF] (cyclo(CRLLIF); ring closure inferred)	show activity	show activity	–	–
–	–	–	–	–	–	−0.5	−0.5	−2.5	−2.5	−2	SGWEMIQRR (cyclic; listed as Homo sapiens)	only active against HIF-1α	–	–	–
